According to US20250230193A1, “CYCLIC COMPOUND HAVING SELECTIVE KRAS INHIBITORY EFFECT ON HRAS AND NRAS” (CHUGAI SEIYAKU KABUSHIKI KAISHA, priority 2022, published 2025):

Assays:
[1] = test system: human lung cancer strain NCI-H441; assay: cells; details: NCI-H441, 96 h, read-out: NCI-H441 IC50 (nM)
[2] = molecular target: GDP-bound NRAS wild-type protein (Homo sapiens, UniProt P01111); assay: Binding to NRAS by surface plasmon resonance (SPR), Single Cycle Kinetics; details: SPR; KD ratio class
Chain of GDP-bound NRAS wild-type protein (P01111 whole entry): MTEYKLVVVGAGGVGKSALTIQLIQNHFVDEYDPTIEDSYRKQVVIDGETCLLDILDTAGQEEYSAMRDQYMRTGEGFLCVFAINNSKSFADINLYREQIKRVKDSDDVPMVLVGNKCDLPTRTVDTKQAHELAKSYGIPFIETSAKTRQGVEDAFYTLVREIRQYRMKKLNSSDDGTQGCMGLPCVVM

[3] = molecular target: GDP-bound HRAS wild-type protein (Homo sapiens, UniProt P01112); assay: Binding to HRAS by surface plasmon resonance (SPR), Single Cycle Kinetics; details: SPR; KD ratio class
Chain of GDP-bound HRAS wild-type protein (P01112 whole entry): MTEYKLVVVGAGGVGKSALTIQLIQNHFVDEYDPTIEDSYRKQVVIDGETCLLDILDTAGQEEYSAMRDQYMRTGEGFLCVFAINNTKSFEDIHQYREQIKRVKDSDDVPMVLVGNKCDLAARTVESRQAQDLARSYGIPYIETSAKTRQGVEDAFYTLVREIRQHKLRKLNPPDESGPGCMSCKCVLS

Compound | IC50 [1] [nM] | NRAS/KRAS (ratio of KD value for GDP-bound NRAS wild-type protein to KD value for KRAS) [2] | HRAS/KRAS (ratio of KD value for GDP-bound HRAS wild-type protein to KD value for KRAS) [3]
CCCC[C@H]1C(=O)N[C@@H]([C@@H](C)CC)C(=O)N(C)CC(=O)N(C)[C@H]2C/C=C\CCN(C2=O)[C@@H](Cc2ccc(C(F)(F)F)cc2)C(=O)N(C)CC(=O)N[C@@H](CCc2cc(F)c(C(F)(F)F)c(F)c2)C(=O)N2C[C@H](OCC)C[C@H]2C(=O)NC2(CCC2)C(=O)N(C)[C@@H](C2CCCC2)C(=O)N(C)[C@H](C(=O)N(CC)CC)CC(=O)N1C [PP1576] | 7.6 | AA (a compound having 20 or more is denoted as AA) | A (a compound having 10 or more and less than 20 is denoted as A)
CCO[C@@H]1C[C@H]2C(=O)NC3(CCC3)C(=O)N(C)[C@@H](C3CCCC3)C(=O)N(C)[C@H](C(=O)N(C)C)CC(=O)N(C)[C@@H](CC(C)C)C(=O)N[C@@H]([C@@H](C)CC)C(=O)N(C)CC(=O)N(C)[C@H]3C/C=C\CCN(C3=O)[C@@H](Cc3ccc(C(F)(F)F)cc3)C(=O)N(C)CC(=O)N[C@@H](CCc3ccc4sccc4c3)C(=O)N2C1 [PP1257] | 54.3 | A (a compound having 10 or more and less than 20 is denoted as A) | A (a compound having 10 or more and less than 20 is denoted as A)
CCO[C@@H]1C[C@H]2C(=O)NC3(CCC3)C(=O)N(C)[C@@H](C(CC)CC)C(=O)N(C)[C@H](C(=O)N(C)C)CC(=O)N(C)[C@@H](CC3CCCC3)C(=O)N[C@@H]([C@@H](C)CC)C(=O)N(C)CC(=O)N(C)[C@H]3C/C=C\CCN(C3=O)[C@@H](CC3CCCCC3)C(=O)N(C)CC(=O)N[C@@H](CCc3cc(F)c(C(F)(F)F)c(F)c3)C(=O)N2C1 [PP1430] | 70.4 | A (a compound having 10 or more and less than 20 is denoted as A) | A (a compound having 10 or more and less than 20 is denoted as A)
CCO[C@@H]1C[C@H]2C(=O)NC3(CCC3)C(=O)N(C)[C@@H](C3CCCC3)C(=O)N(C)[C@H](C(=O)N(C)C)CC(=O)N(C)[C@@H](CC)C(=O)N[C@@H](C(C)C)C(=O)N(C)CC(=O)N(C)[C@H]3C/C=C\CCN(C3=O)[C@@H](Cc3ccc(C(F)(F)F)cc3)C(=O)N(C)CC(=O)N[C@@H](CCc3cc(F)c(C(F)(F)F)c(F)c3)C(=O)N2C1 [PP1270] | 53.5 | A (a compound having 10 or more and less than 20 is denoted as A) | B (a compound having 3 or more and less than 10 is denoted as B)
CCO[C@@H]1C[C@H]2C(=O)NC3(CCC3)C(=O)N(C)[C@@H](C3CCCC3)C(=O)N(C)[C@H](C(=O)N(C)C)CC(=O)N(C)[C@@H](CC(C)C)C(=O)N[C@@H]([C@@H](C)CC)C(=O)N(C)CC(=O)N(C)[C@H]3C/C=C\CCN(C3=O)[C@@H](Cc3ccc(F)cc3C)C(=O)N(C)CC(=O)N[C@@H](CCc3cc(F)c(C(F)(F)F)c(F)c3)C(=O)N2C1 [PP1532] | 13.4 | A (a compound having 10 or more and less than 20 is denoted as A) | B (a compound having 3 or more and less than 10 is denoted as B)
CCO[C@@H]1C[C@H]2C(=O)NC3(CCCC3)C(=O)N(C)[C@@H](C3CCCC3)C(=O)N(C)[C@H](C(=O)N(C)C)CC(=O)N(C)[C@@H](CC)C(=O)N[C@@H]([C@@H](C)CC)C(=O)N(C)CC(=O)N(C)[C@H]3C[C@H](C)C(C)CN(C3=O)[C@@H](Cc3ccc(C(F)(F)F)cc3)C(=O)N(C)CC(=O)N[C@@H](CCc3cc(F)c(C(F)(F)F)c(F)c3)C(=O)N2C1 (stereo partly drawn) [PP1347] | 3.6 | B (a compound having 3 or more and less than 10 is denoted as B) | B (a compound having 3 or more and less than 10 is denoted as B)
